Data taken from patent publication US20110177105A1, “Novel Selective Inhibitors of Ubiquitin Specific Protease 7, the Pharmaceutical Compositions Thereof and Their Therapeutic Applications” (priority 2010, published 2011).
pIC50: −log10 of the molar value.

Tests used:
[1] = molecular target: T1, USP5 (Homo sapiens, UniProt P45974); experiment: USP5 activity assay (Ub-AMC); assay type: biochemical; settings: 300 nM Ub-AMC, 300 pM enzyme
T1 sequence (P45974 1-858): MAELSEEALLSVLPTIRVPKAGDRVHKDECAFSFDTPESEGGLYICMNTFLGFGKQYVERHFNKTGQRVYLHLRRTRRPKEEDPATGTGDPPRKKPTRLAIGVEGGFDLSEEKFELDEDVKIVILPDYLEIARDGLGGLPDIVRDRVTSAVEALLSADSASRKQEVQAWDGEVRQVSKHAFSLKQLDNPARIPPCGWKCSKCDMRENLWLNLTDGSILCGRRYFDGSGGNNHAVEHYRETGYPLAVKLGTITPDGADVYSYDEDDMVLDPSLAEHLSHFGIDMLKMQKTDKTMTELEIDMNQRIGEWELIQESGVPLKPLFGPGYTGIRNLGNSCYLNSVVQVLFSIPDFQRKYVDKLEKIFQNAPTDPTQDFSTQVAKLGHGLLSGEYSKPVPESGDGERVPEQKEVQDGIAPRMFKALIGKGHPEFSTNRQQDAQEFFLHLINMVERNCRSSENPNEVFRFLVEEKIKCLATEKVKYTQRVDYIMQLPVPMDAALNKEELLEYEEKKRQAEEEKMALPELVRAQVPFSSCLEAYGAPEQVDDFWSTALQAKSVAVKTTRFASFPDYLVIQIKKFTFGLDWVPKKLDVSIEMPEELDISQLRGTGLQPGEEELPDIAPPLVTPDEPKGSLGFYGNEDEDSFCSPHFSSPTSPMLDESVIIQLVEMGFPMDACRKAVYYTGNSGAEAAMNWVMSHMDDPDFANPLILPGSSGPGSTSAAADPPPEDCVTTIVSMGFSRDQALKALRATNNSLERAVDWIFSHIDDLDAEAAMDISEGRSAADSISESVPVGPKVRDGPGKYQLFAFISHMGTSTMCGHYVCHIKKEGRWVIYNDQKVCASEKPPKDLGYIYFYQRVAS
Description: USP5 was diluted in USP buffer (50 mM Tris HCl; 0.5 mM EDTA; 5 mM DTT; 0.01% Triton X-100; Bovine Serum Albumin 0.05 mg·ml^−1 pH 7.6). Compounds stocks (100 mM) were stored at −20° C. in DMSO. Compounds were tested at different concentrations: from 200 μM to 91 nM.
Reactions were performed as duplicates in Black 384 well plates (small volume microplates; Greiner; 10 μl final reaction volume). The substrate concentration for USP5 was 300 nM Ub-AMC (Boston Biochem). The concentrations of the enzyme (USP5) in specificity assays was 300 pM. The concentrations were determined in order to perform specificity assays under initial velocities at fixed substrate concentration. Compounds were pre-incubated with enzymes for 30 minutes at 25° C. Reactions were initiated by addition of substrate to the plates containing the enzymes (+/−compounds) diluted in assay buffer. Reactions were incubated for 60 minutes at 37° C. Reactions were stopped by adding acetic acid (100 mM final). Readings were performed on a Pherastar Fluorescent Reader (BMG). λ Emission 380 nm; λ Excitation=460 nm. Data (mean values+/−standard deviation) were analyzed as % of control (no compound) and plotted as percentage versus the Log of the compound concentration using GraphPad (Prism). Data were fitted to a sigmoidal model (variable slope).

[2] = molecular target: T2, UCH-L1 (Homo sapiens, UniProt P09936); experiment: UCH-L1 activity assay (Ub-AMC); assay type: biochemical; settings: 300 nM Ub-AMC, 2.5 nM enzyme
T2 sequence (P09936 1-223): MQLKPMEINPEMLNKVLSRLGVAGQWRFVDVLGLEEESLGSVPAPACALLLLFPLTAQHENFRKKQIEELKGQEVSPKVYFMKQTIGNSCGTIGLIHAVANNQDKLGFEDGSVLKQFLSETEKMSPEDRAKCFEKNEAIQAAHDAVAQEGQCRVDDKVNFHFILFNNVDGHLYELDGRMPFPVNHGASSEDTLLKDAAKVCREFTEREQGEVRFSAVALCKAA
Description: UCH-L1 was diluted in USP buffer (50 mM Tris HCl; 0.5 mM EDTA; 5 mM DTT; 0.01% Triton X-100; Bovine Serum Albumin 0.05 mg·ml^−1 pH 7.6). Compounds stocks (100 mM) were stored at −20° C. in DMSO. Compounds were tested at different concentrations: from 200 μM to 91 nM.
Reactions were performed as duplicates in Black 384 well plates (small volume microplates; Greiner; 10 μl final reaction volume). The substrate concentration for UCH-L1 was 300 nM Ub-AMC (Boston Biochem). The concentration of the enzyme (UCH-L1) in specificity assays was 2.5 nM. The concentrations were determined in order to perform specificity assays under initial velocities at fixed substrate concentration. Compounds were pre-incubated with enzymes for 30 minutes at 25° C. Reactions were initiated by addition of substrate to the plates containing the enzymes (+/−compounds) diluted in assay buffer. Reactions were incubated for 60 minutes at 37° C. Reactions were stopped by adding acetic acid (100 mM final). Readings were performed on a Pherastar Fluorescent Reader (BMG). λ Emission 380 nm; λ Excitation=460 nm. Data (mean values+/−standard deviation) were analyzed as % of control (no compound) and plotted as percentage versus the Log of the compound concentration using GraphPad (Prism). Data were fitted to a sigmoidal model (variable slope).

[3] = tested on: HCT116 colon cancer cells; experiment: HCT116 cell viability and proliferation assay (MTS); assay type: cell-based; settings: Homo sapiens, HCT-116, HCT116, 72 hours, read-out: Cell viability (MTS): HCT116 Gl50 Day 3
Description: HCT116 colon cancer cells were obtained from ATCC (American Type Culture Collection), and maintained in Mc Coy's 5A medium containing 10% FBS, 3 mM glutamine and 1% penicillin/streptomycin. Cells were incubated at 37° C. in a humidified atmosphere containing 5% CO2.
Cell viability was assayed using the MTS technique in 96-well culture plates (CellTiter 96® Aqueous Non-Radioactive Cell Proliferation Assay, Promega) according to the manufacturer's instructions. MTS (3-(4,5-dimethyl-thiazol-2-yl)-5-(3-carboxy-methoxyphenyl)-2-(4-sulfophenyl)-2H-tetra-zolium) is a MTT-derived tetrazolium that is reduced in metabolically active cells into a soluble, cell-permeant formazan. The amount of formazan, detected by its absorbance at 492 nm is proportional to the number of living, metabolically active cells.
10^3 HCT116 cells were seeded per well. 24 hours later, the medium was changed and the cells treated in triplicate with the concentrations of each compound from 100 μM to 50 nM. The compounds were diluted in 100% DMSO, whose final concentration on cells was kept at 0.5%.
Cells were incubated with the compounds for 72 hours, and their viability then assayed by the addition of MTS for 2 hours. Absorbance at 492 nm was measured directly from the 96-well culture plates. GI50 (Growth Inhibition 50) concentrations for each compound were calculated using a sigmoidal variable slope fit (Prism 4.0, Graphpad Softwares). Values represent mean of three independent experiments.

| SMILES | pIC50 [1] | pIC50 [2] | pIC50 [3] |
| --- | --- | --- | --- |
| CCN(CC)CCNC(=O)c1ccc2c(Cl)c3c(nc2c1)CCCC3 [Example 7, 9-Chloro-5,6,7,8-tetrahydro-acridine-3-carboxylic acid (2-diethylamino-ethyl)-amide] | < 3.70 | < 3.70 | 5.37 |
| CC1CCCC(C)N1CCCNC(=O)c1ccc2c(Cl)c3c(nc2c1)CCCC3 (stereo not drawn) [Example 9, 9-Chloro-5,6,7,8-tetrahydro-acridine-3-carboxylic acid [3-(2,6-dimethyl-piperidin-1-yl)-propyl]-amide] | < 3.70 | < 3.70 | 5.44 |
| CCN(CCCNC(=O)c1ccc2c(Cl)c3c(nc2c1)CCCC3)Cc1ccccc1 [Example 5, 9-Chloro-5,6,7,8-tetrahydro-acridine-3-carboxylic acid [3-(benzyl-ethyl-amino)-propyl]-amide] | < 3.70 | < 3.70 | 5.40 |
| CCCCN(CC)CCNC(=O)c1ccc2c(Cl)c3c(nc2c1)CCCC3 [Example 4, 9-Chloro-5,6,7,8-tetrahydro-acridine-3-carboxylic acid [2-(butyl-ethyl-amino)-ethyl]-amide] | < 3.70 | < 3.70 | 5.40 |
| CN(C)CCNC(=O)c1ccc2c(Cl)c3c(nc2c1)CCCC3 [Example 11, 9-Chloro-5,6,7,8-tetrahydro-acridine-3-carboxylic acid (2-dimethylamino-ethyl)-amide] | < 3.70 | < 3.70 | 5.11 |
| CCCN(CCC)CCCNC(=O)c1ccc2c(Cl)c3c(nc2c1)CCCC3 [Example 6, 9-Chloro-5,6,7,8-tetrahydro-acridine-3-carboxylic acid (3-dipropylamino-propyl)-amide] | < 3.70 | < 3.70 | 5.41 |
| CCN(CC)CCCNC(=O)c1ccc2c(Cl)c3c(nc2c1)CCCC3 [Example 10, 9-Chloro-5,6,7,8-tetrahydro-acridine-3-carboxylic acid (3-diethylamino-propyl)-amide] | < 3.70 | < 3.70 | 5.30 |
| CCN1CCCC1CNC(=O)c1ccc2c(Cl)c3c(nc2c1)CCCC3 (stereo not drawn) [Example 2, 9-Chloro-5,6,7,8-tetrahydro-acridine-3-carboxylic acid (1-ethyl-pyrrolidin-2-ylmethyl)-amide] | < 3.70 | < 3.70 | 5.30 |
| CCCN(CCC)CCNC(=O)c1ccc2c(Cl)c3c(nc2c1)CCCC3 [Example 3, 9-Chloro-5,6,7,8-tetrahydro-acridine-3-carboxylic acid (2-dipropylamino-ethyl)-amide] | < 3.70 | < 3.70 | 5.46 |
| Cc1cccc(CN2CCC(CNC(=O)c3ccc4c(Cl)c5c(nc4c3)CCCC5)CC2)c1 [Example 1, 9-Chloro-5,6,7,8-tetrahydro-acridine-3-carboxylic acid [1-(3-methyl-benzyl)-piperidin-4-ylmethyl]-amide] | < 3.70 | < 3.70 | 5.70 |
| O=C(NCCCN1CCCC1)c1ccc2c(Cl)c3c(nc2c1)CCCC3 [Example 8, 9-Chloro-5,6,7,8-tetrahydro-acridine-3-carboxylic acid (3-pyrrolidin-1-yl-propyl)-amide] | < 3.70 | < 3.70 | 5.23 |

Other lines, results leading:

| pIC50 [1] | pIC50 [2] | pIC50 [3] | SMILES |
| --- | --- | --- | --- |
| < 3.70 | < 3.70 | 5.13 | CN1CCN(CCCNC(=O)c2ccc3c(Cl)c4c(nc3c2)CCCC4)CC1 [Example 15, 9-Chloro-5,6,7,8-tetrahydro-acridine-3-carboxylic acid [3-(4-methyl-piperazin-1-yl)-propyl]-amide] |
| < 3.70 | < 3.70 | 5.23 | CCCN1CCN(CCCNC(=O)c2ccc3c(Cl)c4c(nc3c2)CCCC4)CC1 [Example 13, 9-Chloro-5,6,7,8-tetrahydro-acridine-3-carboxylic acid [3-(4-propyl-piperazin-1-yl)-propyl]-amide] |
| < 3.70 | < 3.70 | 4.87 | O=C(c1ccc2c(Cl)c3c(nc2c1)CCCC3)N1CCC(N2CCCCC2)CC1 [Example 16, [1,4′]Bipiperidinyl-1′-yl-(9-chloro-5,6,7,8-tetrahydro-acridin-3-yl)-methanone] |
| < 3.70 | < 3.70 | 4.70 | O=C(c1ccc2c(Cl)c3c(nc2c1)CCCC3)N1CCCCCC1 [Example 12, Azepan-1-yl-(9-chloro-5,6,7,8-tetrahydro-acridin-3-yl)-methanone] |
| < 3.70 | < 3.70 | 5.39 | CN(CCCNC(=O)c1ccc2c(Cl)c3c(nc2c1)CCCC3)Cc1ccccc1 [Example 14, 9-Chloro-5,6,7,8-tetrahydro-acridine-3-carboxylic acid [3-(benzyl-methyl-amino)-propyl]-amide] |
